“And” between values parts separate entries of the source, which are not always exact repeats. Equal values may be shown once.
What was measured:
[1] = target: T1, human recombinant dopamine D2L receptor (Homo sapiens, UniProt P14416); test: Dopamine D2L radioligand binding ([3H]Spiperone); conditions: read-out: Dopamine (1 μM) D2L, inhibition of ligand binding
T1 construct: expressed in transfected cells; host or cells: CHO cells
Description: To evaluate in radioligand binding assays the activity of compounds of the invention, human recombinant dopamine D2L receptor expressed in Chinese hamster ovary (CHO) cells (Grandy, D. K. et al. Proc. Natl. Acad. Sci. USA. 86:9762, 1989; Hayes, G. et al., Mol. Endocrinol. 6:920, 1992) in a modified Tris-HCl buffer (50 mM Tris-HCl, pH 7.4, 1.4 mM Ascorbic Acid, 0.001% BSA, 150 mM NaCl) was used. Compounds of the invention were incubated with 0.16 nM [^3H]Spiperone for 120 minutes at 25° C. Non-specific binding was estimated in the presence of 10 μM Haloperidol. Receptor proteins were filtered and washed, the filters were then counted to determine [^3H]Spiperone specifically bound. Compounds were screened at 1 μM or lower, using 1% DMSO as vehicle. Biochemical assay results are presented as the percent inhibition of specific binding in Table 3.

[2] = target: T2, human recombinant serotonin (5-Hydroxytryptamine) 5-HT2A receptor (Homo sapiens, UniProt P28223); test: Serotonin 5-HT2A radioligand binding ([3H]Ketanserin); conditions: for inhibition at 1 µM: read-out: Serotonin 5-HT2A, inhibition of ligand binding (1 μM)
T2 construct: expressed in transfected cells; host or cells: CHO-K1 cells
Description: To evaluate in radioligand binding assays the activity of compounds of the invention, human recombinant serotonin (5-Hydroxytryptamine) 5-HT2A receptor expressed in Chinese hamster ovary (CHO-K1) cells (Bonhaus, D. W. et al. Br. J. Pharmacol. 115:622, 1995; Saucier, C. and Albert, P. R., J. Neurochem. 68:1998, 1997) in a 50 mM Tris-HCl buffer, pH 7.4, was used. Compounds of the invention were incubated with 0.5 nM [^3H]Ketanserin for 60 minutes at 25° C. Non-specific binding was estimated in the presence of 1 μM Mianserin. Receptor proteins were filtered and washed, the filters were then counted to determine [^3H]Ketanserin specifically bound. Compounds were screened at 1 μM or lower, using 1% DMSO as vehicle. Biochemical assay results are presented as the percent inhibition of specific binding in Table 4.

T2 sequence (P28223 whole entry): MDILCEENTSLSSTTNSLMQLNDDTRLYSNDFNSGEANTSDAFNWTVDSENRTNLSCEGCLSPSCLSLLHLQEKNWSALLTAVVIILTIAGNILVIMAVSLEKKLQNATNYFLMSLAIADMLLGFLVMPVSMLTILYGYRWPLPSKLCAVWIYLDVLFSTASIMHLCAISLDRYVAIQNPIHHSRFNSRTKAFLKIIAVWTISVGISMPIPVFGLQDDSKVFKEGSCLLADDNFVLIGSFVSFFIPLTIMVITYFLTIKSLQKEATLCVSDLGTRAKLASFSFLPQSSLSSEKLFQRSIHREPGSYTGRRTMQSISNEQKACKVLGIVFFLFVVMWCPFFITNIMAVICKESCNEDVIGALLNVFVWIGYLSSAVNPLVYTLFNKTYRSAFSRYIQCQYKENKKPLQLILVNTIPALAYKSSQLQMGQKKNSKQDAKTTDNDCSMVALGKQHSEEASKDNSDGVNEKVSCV
T1 sequence (P14416 whole entry): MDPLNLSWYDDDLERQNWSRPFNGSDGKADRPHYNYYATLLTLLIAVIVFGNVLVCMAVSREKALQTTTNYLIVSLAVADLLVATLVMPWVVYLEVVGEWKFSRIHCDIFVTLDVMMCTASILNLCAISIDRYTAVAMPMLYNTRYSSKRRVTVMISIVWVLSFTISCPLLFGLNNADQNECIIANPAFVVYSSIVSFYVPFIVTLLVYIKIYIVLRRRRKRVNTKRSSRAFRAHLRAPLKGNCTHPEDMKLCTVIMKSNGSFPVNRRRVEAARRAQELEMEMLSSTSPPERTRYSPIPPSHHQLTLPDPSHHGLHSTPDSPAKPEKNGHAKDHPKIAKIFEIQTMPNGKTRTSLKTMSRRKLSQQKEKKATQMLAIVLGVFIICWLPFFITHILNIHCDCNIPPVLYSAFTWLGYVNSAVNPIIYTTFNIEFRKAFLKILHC

| SMILES | inhibition at 1 µM [1] [%] | inhibition at 1 µM [2] [%] | Serotonin 5-HT2A, inhibition of ligand binding (1 μM) [2] |
| --- | --- | --- | --- |
| CN1C2CCC1c1c(n(CCC(=O)N3CCNC(=O)C3)c3ccc(Cl)cc13)C2 (centres unmarked) [Compound 3] | -3 | 3 | – |
| CC(=O)N1CCN(C(=O)CCn2c3c(c4cc(Cl)ccc42)C2CCC(C3)N2C)CC1 (centres unmarked) [Compound 8] | 1 | 1 | – |
| CN1C2CCC1c1c(n(CCC(=O)N3CCNCC3)c3ccc(Cl)cc13)C2 (centres unmarked) [Compound 9] | 7 | 15 | – |
| CN1C2CCC1c1c(n(CCC(=O)N3CC[S+]([O-])CC3)c3ccc(Cl)cc13)C2 (centres unmarked) [Compound 10] | -2 | -5 | – |
| CN1C2CCC1c1c(n(CCC(=O)N3CCS(=O)(=O)CC3)c3ccc(Cl)cc13)C2 (centres unmarked) [Compound 11] | 2 | -8 | – |
| CN1C2CCC1c1c(n(CCC(=O)N3CCSCC3)c3ccc(Cl)cc13)C2 (centres unmarked) [Compound 12] | -4 | 10 | – |
| Cc1ccc2c(c1)c1c(n2CCc2ccc(C)nc2)CC2CCC1N2C (centres unmarked) [Compound 32] | 10 | 15 | – |
| CN1C2CCC1c1c(n(CCc3ccc(C(F)(F)F)nc3)c3ccc(Cl)cc13)C2 (centres unmarked) [Compound 34] | -0.875 | – | 36.0/ % and 65.0% |
| CN1C2CCC1c1c(n(CCCc3ccc(C(F)(F)F)nc3)c3ccc(Cl)cc13)C2 (centres unmarked) [Compound 37] | 2 | 23 | – |
| Cc1ccc(CCCn2c3c(c4cc(Cl)ccc42)C2CCC(C3)N2C)cn1 (centres unmarked) [Compound 38] | -5 | 13 | – |
| CN1C2CCC1c1c(n(CCCc3ccc(Cl)cc3)c3ccc(Cl)cc13)C2 (centres unmarked) [Compound 39] | 2 | 87 | – |
| Cc1ccc(C(O)Cn2c3c(c4cc(Cl)ccc42)C2CCC(C3)N2C)cn1 (centres unmarked) [Compound 52] | 10 | 21 | – |
| Cc1ccc2c(c1)c1c(n2CC(C)(O)c2ccc(Cl)cc2)CC2CCC1N2C (centres unmarked) [Compound 54] | 14 | 100 | – |
| CCOC(=O)CCn1c2c(c3cc(Cl)ccc31)C1CCC(C2)N1C (centres unmarked) [Compound 70, ethyl 3-(2-chloro-11-methyl-5,6,7,8,9,10-hexahydro-7,10-iminocyclohept[b]indol-5-yl)propanoate] | -3 | 16 | – |
| Cc1ccc2c(c1)c1c(n2CCc2ccc(C(F)(F)F)nc2)CC2CCC1N2C (centres unmarked) [Compound 71] | -2 | 22 | 34.0% |
| CN1C2CCC1c1c(n(CCC(=O)O)c3ccc(Cl)cc13)C2 (centres unmarked) [Compound 72] | 3 | -6 | – |
| CN1C2CCC1c1c(n(CCC(N)=O)c3ccc(Cl)cc13)C2 (centres unmarked) [Compound 73] | -4 | -9 | – |
| CN1C2CCC1c1c(n(CCc3ccc(C(F)(F)F)nc3)c3cc(F)c(Cl)cc13)C2 (centres unmarked) [Compound 77] | 4 | 26 | – |
| Cc1ccc(CCn2c3c(c4cc(Cl)ccc42)C2CCC(C3)N2C)cn1 (centres unmarked) [Compound 79] | 9 | 28 | – |
| CN1C2CCC1c1c(n(CCc3cccnc3)c3ccc(Cl)cc13)C2 (centres unmarked) [Compound 80] | -3 | 33 | – |
| Cc1ccc2c(c1)c1c(n2CCc2cnc(C)nc2)CC2CCC1N2C (centres unmarked) [Compound 81] | 9 | -12 | – |
| Cc1ncc(CCn2c3c(c4cc(Cl)ccc42)C2CCC(C3)N2C)cn1 (centres unmarked) [Compound 82] | 2 | -16 | – |

| SMILES | inhibition at 1 µM [1] [%] | inhibition at 1 µM [2] [%] | Serotonin 5-HT2A, inhibition of ligand binding (1 μM) [2] |
| --- | --- | --- | --- |
| COc1ccc(CCn2c3c(c4cc(C)ccc42)C2CCC(C3)N2C)cc1 (centres unmarked) [Compound 83] | 12 | 71 | – |
| COc1ccc(CCn2c3c(c4cc(Cl)ccc42)C2CCC(C3)N2C)cc1 (centres unmarked) [Compound 84] | -6 | 77 | – |
| Cc1ccc2c(c1)c1c(n2CCCc2ccc(Cl)cc2)CC2CCC1N2C (centres unmarked) [Compound 85] | -2 | 95 | – |
| Cc1ccc2c(c1)c1c(n2CCc2cccnc2)CC2CCC1N2C (centres unmarked) [Compound 86] | 4 | 64 | – |
| CN1C2CCC1c1c(n(CCc3cncc(Cl)c3)c3ccc(Cl)cc13)C2 (centres unmarked) [Compound 87] | -6 | 51 | – |
| Cc1ccc2c(c1)c1c(n2CCc2cncc(Cl)c2)CC2CCC1N2C (centres unmarked) [Compound 88] | 4 | 55 | – |
| Cc1cncc(CCn2c3c(c4cc(Cl)ccc42)C2CCC(C3)N2C)c1 (centres unmarked) [Compound 89] | 9 | 27 | – |
| Cc1cncc(CCn2c3c(c4cc(C)ccc42)C2CCC(C3)N2C)c1 (centres unmarked) [Compound 90] | -4 | 30 | – |
| Cc1ccc2c(c1)c1c(n2CC(O)c2ccc(C)nc2)CC2CCC1N2C (centres unmarked) [Compound 91] | -5 | 2 | – |
| Cc1ccc(CCn2c3c(c4ccccc42)C2CCC(C3)N2C)cn1 (centres unmarked) [Compound 92] | 0 | 16 | – |
| Cc1ccc2c(c1)c1c(n2CC(=O)N2CCCCC2)CC2CCC1N2C (centres unmarked) [Compound 93] | -19 | -12 | – |
| CN1[C@@H]2CC[C@H]1c1c(n(CCc3ccc(F)cc3)c3ccc(F)cc13)C2 [Compound 94, (+)-(7S,10R)-2-Fluoro-5-(4-fluorophenethyl)-11-methyl-5,6,7,8,9,10-hexahydro-7,10-iminocyclohept[b]indole] | 14 | 81 | – |
| CN1[C@H]2CC[C@@H]1c1c(n(CCc3ccc(F)cc3)c3ccc(F)cc13)C2 [Compound 95, (−)-(7R,10S)-2-Fluoro-5-(4-fluorophenethyl)-11-methyl-5,6,7,8,9,10-hexahydro-7,10-iminocyclohept[b]indole] | 50 | 57 | – |
| CN1[C@@H]2CC[C@H]1c1c(n(CCc3ccc(C(F)(F)F)nc3)c3ccccc13)C2 [Compound 97] | -10 | 25 | – |
| CN1[C@@H]2CC[C@H]1c1c(n(CC(C)(O)c3ccc(F)cc3)c3ccccc13)C2 (some centres unmarked) [Compound 99] | -6 | 73 | – |
| CN1[C@@H]2CC[C@H]1c1c(n(CC(=O)N3CCCCC3)c3ccccc13)C2 [Compound 101] | 10 | 93 | – |
| Cc1ccc(CCn2c3c(c4ccccc42)[C@@H]2CC[C@H](C3)N2C)cn1 [Compound 102] | -1 | 11 | – |
| Cc1ccc2c(c1)c1c(n2CCC#N)CC2CCC1N2C (centres unmarked) [Compound 103] | 4 | 13 | – |
| CN1C2CCC1c1c(n(CCC#N)c3ccc(Cl)cc13)C2 (centres unmarked) [Compound 107] | -5 | 5 | – |
| CN1C2CCC1c1c(n(CC(=O)c3ccccc3)c3ccc(Cl)cc13)C2 (centres unmarked) [Compound 110] | 14 | 83 | – |
| Cc1ccc2c(c1)c1c(n2CCc2nc(-c3ccccc3)cs2)CC2CCC1N2C (centres unmarked) [Compound 114] | 11 | 88 | – |
| C/C(=C/n1c2c(c3ccccc31)[C@@H]1CC[C@H](C2)N1C)c1ccc(F)cc1 [Compound 121] | 19 | 98 | – |

— patent US8546381B2, “Bridged heterocyclic compounds and methods of use” (Medivation Technologies, Inc., priority 2008, dated 2013)
